# Where “and” joins values, the source holds several entries; their conditions need not be identical. Equal values may be shown once. Read-outs that look alike come from different tables or passages of the source.
# B1: calprotectin: Recombinant human calprotectin; neutrophil-source antimicrobial protein that sequesters zinc, manganese and iron (protein, UniProt P05109 1-93; P06702 1-114, looked up)
# Protein S100-A8: MLTELEKALNSIIDVYHKYSLIKGNFHAVYRDDLKKLLETECPQYIRKKGADVWFKELDINTDGAVNFQEFLILVIKMGVAAHKKSHEESHKE
# Protein S100-A9: MTCKMSQLERNIETIINTFHQYSVKLGHPDTLNQGEFKELVRKDLQNFLKKENKNEKVIEHIMEDLDTNADKQLSFEEFIMLMARLTWASHEKMHEGDEGPGHHHKPGLGEGTP
# Columns and labels:
# Type in all cases: cell-based, Escherichia coli Nissle 1917
# [1] = tested on: Pykg biosensor (EcN/pBSI0)
# Procedure: To validate that the Pykg is sensitive to zinc but not other metals bound by calprotectin, BSI0 was incubated with 40 μg/mL of calprotectin with or without supplementation of an equimolar amount of zinc, manganese, or iron.
# Mixes were similar to the calprotectin induction assays with the addition of zinc sulfate, manganese sulfate, or iron chloride. Concentrations of metals were added in excess of 1× and 10× the binding capacity of 40 μg/mL (1.5 μM) calprotectin. In total, 4 μM and 40 μM of zinc and iron were added, and 2 μM and 20 μM of manganese was added.
# ykg promoter = assay: Zur expression optimization for low basal expression of ykg promoter; conditions: zur driven by constitutive promoter on same plasmid
# Description: To increase the dynamic range of the Pykg expression, the high level of basal expression when the operon is not activated by zinc limitation needed to be reduced. It was considered that the basal level of expression was high because the ykg promoter was being expressed from a multicopy plasmid while the Zur repressor was being synthesized from the chromosome, altering their normal stoichiometry. To identify the optimal level of Zur to reduce the basal expression while maintaining the ability to respond to zinc limitation, several constructs were tested in which the zur gene was driven by constitutive promoters of increasing strength on the same plasmid as the ykg promoter (FIG. 2A) . . . . […] Other promoters were either too weak (J23113) to reduce the basal level of promoter expression or were too strong (J23100, J23110) to allow induction of the Pykg upon zinc depletion. Additional studies utilized the J23109 promoter construct, now denoted as pBSI1 (bacterial sensor of inflammation).
# To reduce the background of Pygk biosensor, zinc binding transcription factor Zur was inserted into pColE-based sensor construct (pColE1-Pykg-sfgfp) under the control of different constitutive expresison promoters. […] The sensitivity and expression strength of new biosensor constructs was analyzed through fluorescence detection and RT-qPCR.
# ykgMO, ent and abt genes = assay: RT-qPCR verification of calprotectin-responsive genes with TPEN; conditions: 30 μM TPEN, LB media, 30 minutes
# Description: FIGS. 1A-1K. Selection of the ykgMO promoter to sense calprotectin levels and sensitivity of ygkMO, ent and abt biosensors to metal starvation. 1A: Sensitivity of ykgMO (50S Ribosomal Protein L36/L31 type B) promoter (Pykg) biosensor to calprotectin; 1B-ID: Sensitivity of ent (1B), abt (1C), and ykg (1D) promoter constructs to TPEN in M9 media detected by Flow Cytometer; 1E: Minimum inhibitory concentration (MIC) of calprotectin on E. coli Nissile1917 (referred to EcN) in LB media; IF: Upregulation of calprotectin responsive promoters with TPEN induction in LB media verified by RT-qPCR; 1G: Sensitivity of ent promoter construct to TPEN in M9 media detected by plate reader; 1H: Sensitivity of abt promoter construct to TPEN in M9 media detected by plate reader; 1I: Sensitivity of ykg promoter construct to TPEN in M9 media detected by plate reader; 1J: Upregulation of calprotectin responsive ykgMO) promoter with TPEN induction in M9 media verified by RT-qPCR; 1K: Quenching of different ions on Pykg biosensor (EcN/pBSI0). Equimolar (1.5 μM) or 10×-excess (15 μM) of Zn^2+, Mn^2+, and Fe^2+ were added to Pykg biosensor co-cultured with 40 μg/mL calprotectin in M9 media. 1.5 μM (equivalent metal binding capacity of 40 μg/mL calprotectin), 3 μM, or 30 μM co-cultured with E. coli Nissle 1917 biosensors in pure culture. Calprotectin only-N=9. […]
# [2] = tested on: Pykg, Pent and Pabt promoter constructs; assay: TPEN induction of promoter-sfgfp constructs (fluorescence); conditions: M9 minimal medium
# Procedure: Selection of the ykgMO promoter to sense calprotectin levels. To assess the ykg, ent, and abt promoters as potential sensors of the metal sequestration activity of calprotectin, Pykg, Pent, and Paht were cloned into plasmid pColE1 driving the expression of superfolder GFP (sfgfp). Sensor fluorescence was next analyzed in M9 minimal medium and used metal chelator TPEN to mimic the metal depletion of calprotectin.
# EcN biosensor constructs were grown to early log phase (˜0.1 OD600) in M9 media with glucose, and were back diluted to 0.01 OD600 and then grown for ˜4 hours aerobically, until OD600 reached ˜0.15. At this point, cells were kept on ice until analysis on a Becton Dickinson FACScan flow cytometer. Flow cytometry runs were performed in 96 well plates. Briefly, 10-40 μL of cells were added to 1 mL of PBS sheath fluid and run through the flow cytometer for a total of 10000 events. Cells were thresholded on forward/side scatter, and .fsc files were analyzed with the FlowCal software. In short, FlowCal identifies the densest region of cells on the associated scatterplot, and analyzes the fluorescent output of 30% of the cells in this region so as to evaluate a homogenous dataset and remove possible outliers. […] In this case, sfGFP output is reported as molecules of equivalent fluorophores (MEF), and was evaluated on the FL1 channel. […]
# [3] = tested on: ATP-binding cassette transporter cluster (abt); assay: RNA sequencing of calprotectin-treated EcN: abt cluster; conditions: 125 μg/mL calprotectin 30 min, LB, over untreated cells
# Procedure: (§1) It was considered that exposing EcN to a sub-inhibitory concentration of calprotectin that was near the MIC would yield the best opportunity to identify physiologically relevant promoters that respond to calprotectin. The minimal inhibitory concentration of calprotectin (250 μg/mL) was first identified using EcN growth in LB media (FIG. 1E). Therefore, EcN were grown into the mid-exponential phase in LB media and then treated cultures with 125 µg/mL of calprotectin for 30 minutes or without calprotectin as a negative control. As an additional control, a mutant version was used of calprotectin that lacks the ability to bind metals, rendering the protein unable to carry out nutritional immunity.
# (§2) For transcriptome analysis, EcN cells were grown overnight, and then back-diluted 1:100 into 5 mL of LB broth. When cells were grown up to the log phase, the sub-inhibitory amount of calprotectin was added to the cultures at a final concentration of 125 μg/mL. […] RNA was quantified and tested for purity using a Denovix spectrophotometer (Denovix, Wilmington, Delaware). RNA-seq was performed by Applied Biological Materials (ABM) (Richmond, British Columbia, Canada) on an Illumina NextSeq sequencer, at an average of 5 million reads per sample. rRNA depletion and quality check were also performed by ABM. […]
# [4] = tested on: ykgMO operon (50S Ribosomal Protein L36/L31 type B); assay: RNA sequencing of calprotectin-treated EcN: ykgMO operon; conditions: 125 μg/mL calprotectin 30 min, LB, over untreated cells
# Procedure: as §1, §2
# [5] = tested on: E. coli Nissle 1917 (EcN); assay: Minimum inhibitory concentration of calprotectin on EcN; conditions: 10^4 EcN cells, overnight, LB media, two-fold dilutions
# Procedure: Identification of E. coli Nissle promoters responsive to calprotectin. […] Currently, fecal calprotectin levels are used as a non-invasive way of monitoring intestinal inflammation, however compliance with such tests is low due to the need for patients to handle their own feces. Therefore, the development of an ingestible bacterial biosensor that would sense and report intestinal inflammation was contemplated. […] To do this the minimal inhibitory concentration of calprotectin incubated with EcN in vitro was first identified.
# as §1
# To explore biosensor promoters that can respond to calprotectin, the transcriptome of EcN treated with the sub-inhibitory amount of calprotectin was analyzed. […]
# [6] = tested on: siderophore enterobactin operon (ent); assay: RNA sequencing of calprotectin-treated EcN: ent operon; conditions: 125 μg/mL calprotectin 30 min, LB, over untreated cells
# Procedure: as §1, §2
# [7] = 40 μg/mL calprotectin, equimolar metal, M9
molecule,measurement,setting,value
manganese sulfate [Mn],repression of BSI0 activation in the presence of calprotectin,[1]; [7],not
"J23109: constitutive promoter (SEQ ID NO: 5) driving zur; construct denoted pBSI1 (DNA TTTACAGCTAGCTCAGTCCTAGGGACTGTGCTAGC; listed as DNA, chemistry not fully specified)",reduction of basal expression from the ykg promoter,ykg promoter,100 fold
iron chloride [Fe],repression of BSI0 activation in the presence of calprotectin,[1]; [7],not
"O=S(=O)([O-])[O-].[Zn+2] [Zn, zinc sulfate]",repression of BSI0 activation in the presence of calprotectin,[1],totally repress the activation
"c1ccc(CN(CCN(Cc2ccccn2)Cc2ccccn2)Cc2ccccn2)nc1 [TPEN, N,N,N′, N′-tetrakis(2-pyridinylmethyl)-1,2-ethanediamine]",gene upregulation by RT-qPCR,"ykgMO, ent and abt genes",upregulated
same,activation of promoter constructs (sfGFP fluorescence) compared to control,[2],2-3 fold
"J23114: constitutive promoter (SEQ ID NO: 4) driving zur on the ykg promoter plasmid (DNA TTTATGGCTAGCTCAGTCCTAGGTACAATGCTAGC; listed as DNA, chemistry not fully specified)",reduction of basal expression from the ykg promoter,ykg promoter,100 fold
B1,"Fold-Change in Gene Expression, ABC transporter cluster",[3],3.80-9.44 fold
same,"Fold-Change in Gene Expression, ykgMO",[4],up to 10.3 fold
same,"Fold-Change in Gene Expression, ykgMO",[4]; listed as Calprotectin,4.20-10.26 fold
same,minimal inhibitory concentration of calprotectin,[5],256 µg/mL and 250 µg/mL
same,"Fold-Change in Gene Expression, ent operon",[6],up to 4.8 fold
same,"Fold-Change in Gene Expression, ent operon",[6]; listed as Calprotectin,4.38-4.78 fold

# Reference: US20250237648A1, “BACTERIAL BIOSENSORS FOR DIAGNOSING AND TREATING INFLAMMATION” (Baylor College of Medicine, priority 2022, published 2025)
